US20260273018A1, “PHARMACEUTICAL COMPOSITION CONTAINING SPECIFIC SELF-ASSEMBLING PEPTIDE RADA16 FOR TREATING OR PREVENTING LOWER GASTROINTESTINAL DISEASES SUCH AS INFLAMMATORY BOWEL DISEASE” (3-D Matrix, Ltd., priority 2021, published 2026)

Columns and labels:
[1] = system: DSS-induced ulcerative colitis model, large intestine tissue; assay: Histopathological evaluation of colon HE-stained specimens (Histological Colitis Score); type: in vivo, Mouse; conditions: compared to the negative control; scores only in the FIGURE
Protocol: A histopathological evaluation of the colon HE-stained specimens prepared in example 1 was performed. • 1. […] Histopathological evaluation • Blind evaluation of a pathology score was carried out in accordance with the scoring below for two pieces of the upper and lower parts of the large intestine for each specimen (36 pieces in total). Each score of (1), (2), (3) is multiplied by (4), and the total of these is defined as a “Histological Colitis Score.”^1) It should be noted that the lower part of the large intestine is located on the […], and • the upper part of the large intestine is located to the right thereof.
• 1) Dieleman LA., et al. Chronic experimental colitis induced by dextran sulfate sodium (DSS) is characterized by Th1 and Th2 cytokines. Clin Exp Immunol. 1998.

[2] = system: DSS-induced ulcerative colitis model; assay: Transanal administration experiment on DSS-induced ulcerative colitis model mice (DAI, body weight, large intestine length, general condition); type: in vivo
Protocol: A mouse was made to drink an aqueous solution of 2.5 w/v % dextran sulfate sodium, and the efficacy of a specific peptide having the amino acid sequence indicated by SEQ ID NO 1 on the induced ulcerative colitis model is retrieved by Disease Activity Index. Similarly, Mucosta (registered trademark) and Selbex (registered trademark), which are therapeutic agents for duodenal ulcers, were administered alone or in combination with a peptide having the amino acid sequence indicated by SEQ ID NO 1, and Pentasa (registered trademark) and Rectabul (registered trademark), which are therapeutic agents for ulcerative colitis, were administered alone to compare and study the efficacy. Furthermore, the plasma and removed large intestine collected on the final day of the experiment were shipped to a test contractor. • Dextran sulfate sodium aqueous solution drink period (preparation of dextran sulfate sodium-induced ulcerative colitis model): • Nov. 16, 2019 to Nov. 25, 2019 • Administration period: Nov. 22, 2019 to Nov. 24, 2019 • Disease Activity Index (DAI: Evaluation of body weight, properties, and occult blood): • November 16, November 22, and Nov. 25, 2019 • Blood collected: Nov. 25, 2019 • Large intestine removed and length measured: • Nov. 25, 2019 • Experiment end date: Nov. 25, 2019
• Species: Mouse (SPF) • Strain: BALB/cAnNCrlCrlj • Source: Charles River Laboratories Japan (Atsugi Breeding Center) • Reason for selection of the test system: The mouse strain is widely used for toxicity and drug efficacy tests. • Sex and order (purchase) count: Male: 60 • Age at purchase: 9 weeks • Quarantine and habituation: Quarantine was carried out for six days from the date of animal purchase. During the quarantine period, the general condition was observed daily and body weight was measured on the 1st day (purchase date), 3rd day, and 7th day (quarantine end date). In addition, the habituation period was from the date of animal purchase to the day before the start of drinking the DSS aqueous solution, the general condition was also observed once a day after the quarantine period, and body weight was measured on a grouping day. • Age at the start of test substance administration: 11 weeks
• Administration method: Performed under anesthesia by inhalation of Japanese pharmacopeia isoflurane (Mylan Inc., hereinafter abbreviated as isoflurane). • If there is a clot of feces in the rectum, the animal was massaged, and the feces were removed as much as possible. • The administration solution was aspirated into a 1 mL polypropylene syringe cylinder (sterilized disposable product), inserted through the anus part using a mouse sonde (about 1 cm from the tip), and slowly administered transanally. […] Then, it was slowly pulled out and liquid that leaked from the anus part was wiped off. It should be noted that mixing was performed by lightly inverting by hand so that the test substance administration solution and the Rectabul administration solution would not have large bubbles as much as possible and so that the other comparative control substance administration solution would not foam up, and then each solution was aspirated into the syringe cylinder. • Amount of administration liquid: 0.7 mL • Reason for selection: The method of administration to mice is common and appropriate.
• Animal subjects: All test animals after grouping (excluding non-treatment group) • Model production period: Day 1-10 • Model production method: On the day that drinking of the DSS aqueous started (between 13:00 and 14:00), the water in the glass or polycarbonate water dispenser installed in the cage was changed to a DSS 2.5 w/v % aqueous solution, and the solution was freely ingested. […]

[3] = Day 10, transanal 0.7 mL/head on Days 7-9
[4] = observation period, considered due to progress of DSS colitis

Sequence: RADARADARADARADA
- histological score: suppression of intestinal tissue inflammation [1]: had an effect of suppressing intestinal tissue inflammation compared to the negative control
- average DAI score, Day 7 ([2]; Day 7 of DSS 2.5 w/v % drinking (first treatment day), group average, 0.7 mL/head transanal once a day on Days 7, 8, 9): 2.8
- cases scoring 1 "+" for fecal occult blood (visual) ([2]; Day 10): one case
- length of the large intestine, end part of the ileum to just before the rectum (average) [2, 3]: 45.52 mm
- length of the large intestine, end part of the ileum to the anus part (average) [2, 3]: 75.71 mm
- average DAI score, Day 10 ([2]; Day 10 of DSS drinking, after transanal 0.7 mL/head on Days 7, 8, 9, group average): 2.8
- death ([2]; found dead on Day 10, cause considered progression of DSS-induced ulcerative colitis): a death was observed
- general condition: anal bleeding (cases) ([2]; observation period): one case
- general condition: black stool (cases) ([2]; observation period): one case
- general condition: perianal hair stains (pale red) (cases) ([2]; observation period): one case
- general condition: piloerection (cases) ([2]; observation period): one case
- general condition: irregular respiration (cases) [2, 4]: one to three cases
- general condition: small amount of defecation (cases of 5 animals) [2, 4]: one to three cases
- DAI score on Day 10 compared to Day 7 ([2]; result in words, control group increased): did not increase compared to Day 7
- body weight loss on Day 10 compared to Day 7 ([2]; result in words, control group lost further weight): no further body weight loss was observed compared to Day 7
